Data on one compound can be found in PMC5182151 (International journal of pharmaceutics, 2016).

A short description of one series: physchem. In kind it is physicochemical.
Series [1] is described as follows: Stability of VD3-TyroSphere formulations during storage. In kind it is physicochemical. Particulars: in Transcutol (1mg/ml), 2 months storing at room temperature.
For series [2] the following is noted: VD3 dispersion in water, UV light for 9.5h; ref Luo et al., 2012; cited from earlier work.

Broadly, the half-life is the time needed for the level to fall by half in the phase considered.

As to `C=C1CC[C@H](O)C/C1=C/C=C1\CCC[C@]2(C)[C@@H]([C@H](C)CCCC(C)C)CC[C@@H]12` [VD3, cholecalciferol], the half-life in the series “physchem” is 76 h. Besides, the “drug lost in first 24h exposure to UV light” value in the series “physchem” (VD3 in methanol solution, 254 nm UV) is approximately 20%. In the series “physchem” (VD3 in methanol, 254 nm UV), the “photodegradation rate constant (zero-order)” value is -1.194 µg/mL/h. For the same compound, in the series “physchem” (methanol formulation, 254 nm UV), the “VD3 left after 134 h UV exposure” value came out at 21%. In series [1], this compound displayed a VD3 detected of 2%. Moreover, the “VD3 remained after UV exposure” value in series [2] is recorded as “about 30%”.
